From PubChem BioAssay (NCI)
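Protocol summary: plate cells (96-well), add compound at 5 concentrations, incubate 48 h, interpolate endpoints linearly. The concentration for full growth arrest is given as TGI.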

Experiments:
Assay in all cases: NCI-60 cell line screen, 48 h
786-0 renal = test system: 786-0 renal
A498 renal = test system: A498 renal
A549 NSCLC = test system: A549 NSCLC
ACHN renal = test system: ACHN renal
CAKI-1 renal = test system: CAKI-1 renal
CCRF-CEM leukemia = test system: CCRF-CEM leukemia
COLO 205 colon = test system: COLO 205 colon
DU-145 prostate = test system: DU-145 prostate
EKVX NSCLC = test system: EKVX NSCLC
HCC-2998 colon = test system: HCC-2998 colon
HCT-116 colon = test system: HCT-116 colon
HCT-15 colon = test system: HCT-15 colon
HL-60(TB) leukemia = test system: HL-60(TB) leukemia
HOP-62 NSCLC = test system: HOP-62 NSCLC
HOP-92 NSCLC = test system: HOP-92 NSCLC
HS 578T breast = test system: HS 578T breast
HT29 colon = test system: HT29 colon
IGROV1 ovarian = test system: IGROV1 ovarian
K-562 leukemia = test system: K-562 leukemia
LOX IMVI melanoma = test system: LOX IMVI melanoma
M14 melanoma = test system: M14 melanoma
MALME-3M melanoma = test system: MALME-3M melanoma
MCF7 breast = test system: MCF7 breast
MDA-MB-231 breast = test system: MDA-MB-231 breast
MDA-MB-435 = test system: MDA-MB-435
MDA-N = test system: MDA-N
MOLT-4 leukemia = test system: MOLT-4 leukemia
NCI-H23 lung = test system: NCI-H23 lung
NCI-H460 lung = test system: NCI-H460 lung
NCI-H522 lung = test system: NCI-H522 lung
NCI/ADR-RES ovarian = test system: NCI/ADR-RES ovarian
OVCAR-3 ovarian = test system: OVCAR-3 ovarian
OVCAR-4 ovarian = test system: OVCAR-4 ovarian
OVCAR-5 ovarian = test system: OVCAR-5 ovarian
OVCAR-8 ovarian = test system: OVCAR-8 ovarian
PC-3 prostate = test system: PC-3 prostate
RPMI-8226 leukemia = test system: RPMI-8226 leukemia
SF-268 CNS = test system: SF-268 CNS
SF-295 CNS = test system: SF-295 CNS
SF-539 CNS = test system: SF-539 CNS
SK-MEL-2 melanoma = test system: SK-MEL-2 melanoma
SK-MEL-28 melanoma = test system: SK-MEL-28 melanoma
SK-MEL-5 melanoma = test system: SK-MEL-5 melanoma
SK-OV-3 ovarian = test system: SK-OV-3 ovarian
SN12C renal = test system: SN12C renal
SNB-19 CNS = test system: SNB-19 CNS
SNB-75 CNS = test system: SNB-75 CNS
SR leukemia = test system: SR leukemia
SW-620 colon = test system: SW-620 colon
T-47D breast = test system: T-47D breast
TK-10 renal = test system: TK-10 renal
U251 CNS = test system: U251 CNS
UACC-257 melanoma = test system: UACC-257 melanoma
UACC-62 melanoma = test system: UACC-62 melanoma
UO-31 renal = test system: UO-31 renal
KM12 colon = test system: KM12 colon
NCI-H226 lung = test system: NCI-H226 lung
RXF 393 renal = test system: RXF 393 renal

CO[C@]12CC(=O)C3(C(C[C@H]4CC5CCC6=CC(=O)CC[C@]6(OC(C)=O)C5C[C@@]43C)C1)C1C[C@H]3[C@@H]4CCC5=CC(=O)CC[C@]5(OC(C)=O)[C@H]4CC[C@]3(C)C12 (stereo partly drawn)
TGI (786-0 renal): > 100 µM
TGI (A498 renal): > 100 µM
TGI (A549 NSCLC): > 100 µM
TGI (ACHN renal): > 100 µM
TGI (CAKI-1 renal): > 100 µM
TGI (CCRF-CEM leukemia): > 100 µM
TGI (COLO 205 colon): 56.7 µM
TGI (DU-145 prostate): > 100 µM
TGI (EKVX NSCLC): > 100 µM
TGI (HCC-2998 colon): > 100 µM
TGI (HCT-116 colon): > 100 µM
TGI (HCT-15 colon): > 100 µM
TGI (HL-60(TB) leukemia): > 100 µM
TGI (HOP-62 NSCLC): > 100 µM
TGI (HOP-92 NSCLC): > 100 µM
TGI (HS 578T breast): > 100 µM
TGI (HT29 colon): > 100 µM
TGI (IGROV1 ovarian): > 100 µM
TGI (K-562 leukemia): > 100 µM
TGI (LOX IMVI melanoma): > 100 µM
TGI (M14 melanoma): > 100 µM
TGI (MALME-3M melanoma): > 100 µM
TGI (MCF7 breast): > 100 µM
TGI (MDA-MB-231 breast): 74.7 µM
TGI (MDA-MB-435): > 100 µM
TGI (MDA-N): > 100 µM
TGI (MOLT-4 leukemia): > 100 µM
TGI (NCI-H23 lung): > 100 µM
TGI (NCI-H460 lung): > 100 µM
TGI (NCI-H522 lung): > 100 µM
TGI (NCI/ADR-RES ovarian): > 100 µM
TGI (OVCAR-3 ovarian): > 100 µM
TGI (OVCAR-4 ovarian): > 100 µM
TGI (OVCAR-5 ovarian): > 100 µM
TGI (OVCAR-8 ovarian): > 100 µM
TGI (PC-3 prostate): > 100 µM
TGI (RPMI-8226 leukemia): > 100 µM
TGI (SF-268 CNS): > 100 µM
TGI (SF-295 CNS): > 100 µM
TGI (SF-539 CNS): > 100 µM
TGI (SK-MEL-2 melanoma): > 100 µM
TGI (SK-MEL-28 melanoma): > 100 µM
TGI (SK-MEL-5 melanoma): > 100 µM
TGI (SK-OV-3 ovarian): > 100 µM
TGI (SN12C renal): > 100 µM
TGI (SNB-19 CNS): > 100 µM
TGI (SNB-75 CNS): > 100 µM
TGI (SR leukemia): > 100 µM
TGI (SW-620 colon): > 100 µM
TGI (T-47D breast): > 100 µM
TGI (TK-10 renal): > 100 µM
TGI (U251 CNS): > 100 µM
TGI (UACC-257 melanoma): > 100 µM
TGI (UACC-62 melanoma): > 100 µM
TGI (UO-31 renal): > 100 µM

CCC#CCCCCCCCCC(F)C(=O)O (stereo not drawn)
TGI (786-0 renal): > 100 µM
TGI (A498 renal): > 100 µM
TGI (A549 NSCLC): > 100 µM
TGI (ACHN renal): > 100 µM
TGI (CAKI-1 renal): > 100 µM
TGI (CCRF-CEM leukemia): > 100 µM
TGI (COLO 205 colon): > 100 µM
TGI (DU-145 prostate): > 100 µM
TGI (EKVX NSCLC): > 100 µM
TGI (HCC-2998 colon): > 100 µM
TGI (HCT-116 colon): > 100 µM
TGI (HCT-15 colon): > 100 µM
TGI (HL-60(TB) leukemia): > 100 µM
TGI (HOP-62 NSCLC): > 100 µM
TGI (HOP-92 NSCLC): > 100 µM
TGI (HS 578T breast): > 100 µM
TGI (HT29 colon): > 100 µM
TGI (IGROV1 ovarian): > 100 µM
TGI (K-562 leukemia): > 100 µM
TGI (KM12 colon): > 100 µM
TGI (LOX IMVI melanoma): > 100 µM
TGI (M14 melanoma): > 100 µM
TGI (MALME-3M melanoma): > 100 µM
TGI (MCF7 breast): > 100 µM
TGI (MDA-MB-231 breast): > 100 µM
TGI (MDA-MB-435): > 100 µM
TGI (MDA-N): > 100 µM
TGI (MOLT-4 leukemia): > 100 µM
TGI (NCI-H226 lung): > 100 µM
TGI (NCI-H23 lung): > 100 µM
TGI (NCI-H522 lung): > 100 µM
TGI (NCI/ADR-RES ovarian): > 100 µM
TGI (OVCAR-3 ovarian): > 100 µM
TGI (OVCAR-4 ovarian): > 100 µM
TGI (OVCAR-5 ovarian): > 100 µM
TGI (OVCAR-8 ovarian): > 100 µM
TGI (PC-3 prostate): > 100 µM
TGI (RPMI-8226 leukemia): > 100 µM
TGI (RXF 393 renal): > 100 µM
TGI (SF-268 CNS): > 100 µM
TGI (SF-295 CNS): > 100 µM
TGI (SF-539 CNS): > 100 µM
TGI (SK-MEL-2 melanoma): > 100 µM
TGI (SK-MEL-28 melanoma): > 100 µM
TGI (SK-MEL-5 melanoma): > 100 µM
TGI (SK-OV-3 ovarian): > 100 µM
TGI (SN12C renal): > 100 µM
TGI (SNB-19 CNS): > 100 µM
TGI (SNB-75 CNS): > 100 µM
TGI (SW-620 colon): > 100 µM
TGI (T-47D breast): > 100 µM
TGI (TK-10 renal): > 100 µM
TGI (U251 CNS): > 100 µM
TGI (UACC-257 melanoma): > 100 µM
TGI (UO-31 renal): > 100 µM

CNc1cc(N)ccc1C(=O)N1CCC[C@H]1CO
TGI (786-0 renal): > 100 µM
TGI (A498 renal): > 100 µM
TGI (A549 NSCLC): > 100 µM
TGI (ACHN renal): > 100 µM
TGI (DU-145 prostate): > 100 µM
TGI (EKVX NSCLC): > 100 µM
TGI (HCT-116 colon): > 100 µM
TGI (HCT-15 colon): > 100 µM
TGI (HOP-62 NSCLC): > 100 µM
TGI (HOP-92 NSCLC): > 100 µM
TGI (HS 578T breast): > 100 µM
TGI (HT29 colon): > 100 µM
TGI (IGROV1 ovarian): > 100 µM
TGI (K-562 leukemia): > 100 µM
TGI (KM12 colon): > 100 µM
TGI (LOX IMVI melanoma): > 100 µM
TGI (M14 melanoma): > 100 µM
TGI (MCF7 breast): > 100 µM
TGI (MDA-MB-231 breast): > 100 µM
TGI (MDA-MB-435): > 100 µM
TGI (MDA-N): > 100 µM
TGI (MOLT-4 leukemia): > 100 µM
TGI (NCI-H226 lung): > 100 µM
TGI (NCI-H460 lung): > 100 µM
TGI (NCI-H522 lung): > 100 µM
TGI (NCI/ADR-RES ovarian): > 100 µM
TGI (OVCAR-3 ovarian): > 100 µM
TGI (OVCAR-5 ovarian): > 100 µM
TGI (OVCAR-8 ovarian): > 100 µM
TGI (PC-3 prostate): > 100 µM
TGI (RPMI-8226 leukemia): > 100 µM
TGI (SF-268 CNS): > 100 µM
TGI (SF-295 CNS): > 100 µM
TGI (SF-539 CNS): > 100 µM
TGI (SK-MEL-2 melanoma): > 100 µM
TGI (SK-MEL-28 melanoma): > 100 µM
TGI (SK-OV-3 ovarian): > 100 µM
TGI (SN12C renal): > 100 µM
TGI (SNB-19 CNS): > 100 µM
TGI (SNB-75 CNS): > 100 µM
TGI (SR leukemia): > 100 µM
TGI (SW-620 colon): > 100 µM
TGI (T-47D breast): > 100 µM
TGI (TK-10 renal): > 100 µM
TGI (U251 CNS): > 100 µM
TGI (UACC-257 melanoma): > 100 µM
TGI (UACC-62 melanoma): > 100 µM
TGI (UO-31 renal): > 100 µM
